According to patent US20070265212A1, “Drug Transport and Delivery System” (LUZERN ACQUISITION CORP., C/O STRELA DEVELOPMENT, priority 2002, published 2007):

Key:
red blood cells = test: Metabolite formation in the presence of red blood cells (HPLC, mass spectrometry); type: in vitro ADME; details: identified by HPLC and mass spectrometry
Procedure: (§1) These metabolites were identified by HPLC and mass spectrometry to be m-L-Sarcolysin, prolyl-m-L-sarcolysin, fluoro-phenylalanine and prolyl-m-sarcolysyl-p-fluoro-phenylalanin.
(§2) According to hitherto is available results this metabolite is most probably ADM linked to one Phe moiety. This was done with 1 ml of blood containing 20 μg/ml of the ADM derivative as well as 5×10^9 RBC compared to only 5×10^6 melanoma cells.

human melanoma cells = test: Metabolite formation in the presence of human melanoma cells (HPLC, mass spectrometry); type: in vitro ADME; details: identified by HPLC and mass spectrometry
Procedure: as §1, §2

**Q.** Which “metabolites in presence of red blood cells” value (red blood cells) does the source give for “Prolyl-m-sarcolysyl-p-fluoro-phenylalanin [PSF]” here?
**A.** Its value is “one major metabolite, namely m-L-sarcolysin”.

**Q.** And the “metabolites in the presence of cancer cells” value (human melanoma cells)?
**A.** Its value is 4.
